Values of other authors in the CATMoS acute toxicity set (Mansouri et al. 2021).

Test: rat acute oral toxicity
Details: in vivo

SMILES	LD50 [mg/kg]
CCOc1ccc([N+](=O)[O-])cc1	3300
CC(Cc1ccccc1)OC(N)=O (configuration not stated)	1100
O=C(O)C(c1ccccc1)c1ccccc1	5540
CCc1cccc(C)c1N	885
CC1(C)S[C@@H]2[C@H](NC(=O)C3(N)CCCCC3)C(=O)N2[C@H]1C(=O)O	5010
CC(=O)c1cc2c(cc1C)C(C)(C)C(C)C2C(C)C (configuration not stated)	2220
CCCCC(CC)OCCO (configuration not stated)	2280
O=C(NO)Nc1ccc(Cl)c(Cl)c1	1850
CN1CCC(=C2c3ccccc3CCc3sccc32)CC1	410
CCOCC(=O)Nc1ccc(C(=O)c2ccccc2)cc1C	2280
CCCCCCCCc1ccccc1O	2800
CN1CCN(C(=O)Cn2c(=O)sc3ccc(Cl)cc32)CC1	640
Cc1ccc2ccccc2c1N	620
CC1=[N+](C)c2ccccc2C1(C)C	707
CC1COCC(C)N1C(=O)C[n+]1ccc(-c2cc[n+](CC(=O)N3C(C)COCC3C)cc2)cc1 (configuration not stated)	345
C1CSCCO1	2830
Oc1ccc(Cl)cc1Cc1ccccc1	1700
N#CCCCCC(=O)O	1000
CC(C)=CC=O	690
O=C(C=Cc1ccccc1)NO	2140
ClCCN(Cc1ccccc1)Cc1ccccc1	2400
O=C(O)Cc1ccc(-c2ccccc2F)cc1	638
N#CC=Cc1ccccc1	4150
CN1CCN(CCCCOc2ccccc2C=Cc2ccccc2)CC1	2300

SMILES	LD50 [mg/kg]
CC(=O)Nc1ccc(/N=N/c2c(S(=O)(=O)O)cc3cc(S(=O)(=O)O)cc(NC(C)=O)c3c2O)cc1	23200
CCOC(=S)c1ccc(Cl)cc1	995
NNc1nncc2ccccc12	90
C=CCOC(=O)OC(=C)C(=O)OCC=C	390
CCCCCCCCCCCCOC(C[n+]1ccccc1)c1ccc(C(C)C)cc1 (configuration not stated)	250
CC(=O)C=Cc1ccco1	325
O=C1CCCCC1(CCN1CCCCCC1)C(=O)OCc1ccccc1 (configuration not stated)	450
CCCCC(CC)COC(CBr)c1ccc(Cl)c(Cl)c1 (configuration not stated)	250
COP(=O)(Oc1ccccc1)OC(Br)C(Cl)(Cl)Br (configuration not stated)	500
CC(=O)c1ccc2oc3ncccc3c(=O)c2c1	1680
CC(Cl)CCl (configuration not stated)	1950
CC(=O)CC(c1ccc([N+](=O)[O-])cc1)c1c(O)c2ccccc2oc1=O (configuration not stated)	513
c1ccc(Nc2cccc3ccccc23)cc1	1620
COCCOC(=O)CC#N	4300
CN(N=O)c1ccccc1	225
C#CC(C)(C)NC(=O)C=Cc1cc(OC)c(OC)c(OC)c1	570
CC(N)C1CCC(c2ccccc2)CC1 (configuration not stated)	690
CCC1CCCC(CC)C1N (configuration not stated)	157
CCOP(=S)(OCC)SC=C(C)SC	2.5
[O-][n+]1cc[n+]([O-])c2ccccc21	500
C/C=N/N(C)C=O	320
CCCCCCCCCCCCCCCCCCOC(=O)Cc1ccc(N(CCCl)CCCl)cc1	200
CC1=CC(=O)OC1=O	2600
O=C(O)CCCCCCCCC(=O)O	14400

SMILES	LD50 [mg/kg]
CCN(CC)C(=O)CSc1ccc(Cl)nn1	1550
CCCC(=O)O[C@]1(C(=O)COC(=O)CC)CC[C@H]2[C@@H]3CCC4=CC(=O)CC[C@]4(C)[C@H]3[C@@H](O)C[C@@]21C	5120
COc1ccc(OCCCN(C)CCOc2ccc3c(c2)OCO3)c(C2Sc3ccccc3N(C)C2=O)c1 (configuration not stated)	206
Nc1ccc([N+](=O)[O-])c(Cl)n1	1780
COC(=O)C1C2C=CC(C2)C1C(=O)OC (configuration not stated)	1000
CCCCOC(=O)C1CC1OCCCC (configuration not stated)	24
CC(C)(SC(=O)N1CCCCC1)c1ccccc1	946
CC(C)CNC(=O)N1CCNC1=O	3500
CCC1OC1(C)C (configuration not stated)	3500
C[N+](C)(N)CCBr	3200
c1ccc2[nH]c(SN3CCCCC3)nc2c1	853
O=C1C(Cl)C2(Cl)C3C(Cl)OC(Cl)C3C1(Cl)C2(Cl)Cl (configuration not stated)	7
CCCCCCCCOC(=O)/C=C\C(=O)OCCCCCCCC	14200
CN(C)CCC(O)(c1ccccc1)c1ccccc1Cl (configuration not stated)	350
COc1ccc2cc(C(C)C(=O)OCCOCCO)ccc2c1 (configuration not stated)	638
CCOC(=O)[C@H](CCc1ccccc1)N[C@@H](C)C(=O)N1C(=O)N(C)C[C@H]1C(=O)O	3540
CC(C)Cc1ccc(C(C)C(=O)OCCN2CCN(c3cccc(Cl)c3)CC2)cc1 (configuration not stated)	3350
COP(=S)(OC)SC1CCC2C=CCC1S2 (configuration not stated)	1000
OCCN1CCCN(CCCN2c3ccccc3C=Cc3ccccc32)CC1	2410
O=S(=O)(O)c1ccc2cc(Nc3cccc4c(O)c(S(=O)(=O)O)ccc34)ccc2c1O	11000
CON(C)C(=O)/C=C(\C)OP(=O)(OC)OC	2
Nc1ccc(/N=N/c2ccc(-c3ccc(/N=N/c4c(S(=O)(=O)O)cc5cc(S(=O)(=O)O)c(/N=N/c6ccccc6)c(O)c5c4N)cc3)cc2)c(N)c1	7600
CNC(=O)N(C)c1nnc(C(F)(F)F)s1	278
O=C(Nc1ccc(O)cc1)c1ccccc1O	6700
